In PubChem BioAssay AID1963983 (Molecular Pharmacology Branch, DTP, NCI, 2024):
pIC50: −log10 of the molar value.

System: 186277-243-T-J2-PDC multi-cell spheroid viability
Assay: Anticancer human tumor 186277-243-T-J2-PDC patient-derived colon adenocarcinoma cell line growth inhibition [PI3K]
Conditions: for pIC50: curve of first compound; for viability, T/C: stronger effect = lower value
Method in brief: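 High-throughput combination screen: PI3K inhibitors crossed with targeted small molecules on complex spheroids of tumor cells, HUVEC and MSCs at 37 degrees C, 5% CO2. Top concentration was at or near clinical Cmax (otherwise 10 microM), with half-log decrements.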

[1] = second compound 0.0316 µM, first compound 0.0316 µM
[2] = second compound 0.0316 µM, first compound 0.1 µM
[3] = second compound 0.0316 µM, first compound 0.316 µM
[4] = second compound 0.0316 µM, first compound 1 µM
[5] = second compound 0.0316 µM, first compound 3.16 µM
[6] = second compound 0.0316 µM, first compound 10 µM
[7] = second compound 0.1 µM, first compound 0.0316 µM
[8] = second compound 0.1 µM, first compound 0.1 µM
[9] = second compound 0.1 µM, first compound 0.316 µM
[10] = second compound 0.1 µM, first compound 1 µM
[11] = second compound 0.1 µM, first compound 3.16 µM
[12] = second compound 0.1 µM, first compound 10 µM
[13] = second compound 0.316 µM, first compound 0.0316 µM
[14] = second compound 0.316 µM, first compound 0.1 µM
[15] = second compound 0.316 µM, first compound 0.316 µM
[16] = second compound 0.316 µM, first compound 1 µM
[17] = second compound 0.316 µM, first compound 3.16 µM
[18] = second compound 0.316 µM, first compound 10 µM
[19] = second compound 1 µM, first compound 0.0316 µM
[20] = second compound 1 µM, first compound 0.1 µM
[21] = second compound 1 µM, first compound 0.316 µM
[22] = second compound 1 µM, first compound 1 µM
[23] = second compound 1 µM, first compound 3.16 µM
[24] = second compound 1 µM, first compound 10 µM
[25] = second compound 3.16 µM, first compound 0.0316 µM
[26] = second compound 3.16 µM, first compound 0.1 µM
[27] = second compound 3.16 µM, first compound 0.316 µM
[28] = second compound 3.16 µM, first compound 1 µM
[29] = second compound 10 µM, first compound 0.0316 µM
[30] = second compound 10 µM, first compound 0.1 µM
[31] = second compound 10 µM, first compound 0.316 µM
[32] = second compound 10 µM, first compound 1 µM
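Note: spheroids exposed to compounds for seven days before viability reading.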
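Throughout, for viability, T/C: 100% = DMSO vehicle control viability.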

## CC1(C)CCC(Nc2ncc(C(F)(F)F)c(-c3c[nH]c4c(P(C)(C)=O)c(C#N)ccc34)n2)CN1 (configuration not stated) + Cc1nc(NC(=O)N2CCCC2C(N)=O)sc1-c1ccnc(C(C)(C)C(F)(F)F)c1
Second compound 0.0316 µM
  pIC50: 5.45
Second compound 0.1 µM
  pIC50: 5.39
Second compound 0.316 µM
  pIC50: 5.64
Second compound 1 µM
  pIC50: 6.27
Second compound 3.16 µM
  pIC50: > 7.50
Second compound 10 µM
  pIC50: > 7.50
[1]
  viability, T/C: 76.1%
[2]
  viability, T/C: 55.9%
[3]
  viability, T/C: 57.9%
[4]
  viability, T/C: 61.4%
[5]
  viability, T/C: 55.8%
[6]
  viability, T/C: 0.33%
[7]
  viability, T/C: 81.5%
[8]
  viability, T/C: 54.2%
[9]
  viability, T/C: 56.7%
[10]
  viability, T/C: 59%
[11]
  viability, T/C: 65%
[12]
  viability, T/C: 0.22%
[13]
  viability, T/C: 77%
[14]
  viability, T/C: 65.4%
[15]
  viability, T/C: 55.4%
[16]
  viability, T/C: 60.7%
[17]
  viability, T/C: 48.7%
[18]
  viability, T/C: 0.44%
[19]
  viability, T/C: 63.4%
[20]
  viability, T/C: 57.9%
[21]
  viability, T/C: 49.5%
[22]
  viability, T/C: 49.2%
[23]
  viability, T/C: 28.3%
[24]
  viability, T/C: 0.27%
[25]
  viability, T/C: 31%
[26]
  viability, T/C: 34.3%
[27]
  viability, T/C: 21.6%
[28]
  viability, T/C: 29.4%
Second compound 3.16 µM, first compound 3.16 µM
  viability, T/C: 8.8%
Second compound 3.16 µM, first compound 10 µM
  viability, T/C: 0.65%
[29]
  viability, T/C: 7.49%
[30]
  viability, T/C: 7.95%
[31]
  viability, T/C: 8.74%
[32]
  viability, T/C: 4.41%
Second compound 10 µM, first compound 3.16 µM
  viability, T/C: 5.08%
Second compound 10 µM, first compound 10 µM
  viability, T/C: 1.35%

## Cn1ncc(Cl)c1-c1cc(C(=O)NC(CN)Cc2cccc(F)c2)sc1Cl (configuration not stated)
Compound 0.0316 µM
  viability, T/C: 89.1% [middle of 4 runs]
Compound 0.1 µM
  viability, T/C: 85% [middle of 4 runs]
Compound 0.316 µM
  viability, T/C: 60.5% [middle of 4 runs]
Compound 1 µM
  viability, T/C: 45.4% [middle of 4 runs]
Compound 3.16 µM
  viability, T/C: 46.1% [middle of 4 runs]
Compound 10 µM
  viability, T/C: 19.8% [middle of 4 runs]
Curve of compound
  IC50: 1.17 µM [middle of 4 runs]

## CCN1CCN(Cc2ccc(Nc3ncc(F)c(-c4cc(F)c5nc(C)n(C(C)C)c5c4)n3)nc2)CC1 + CC(Nc1ncnc2nc[nH]c12)c1cc2cccc(Cl)c2c(=O)n1-c1ccccc1
Second compound 0.0316 µM
  pIC50: < 6.00
Second compound 0.1 µM
  pIC50: < 6.00
Second compound 0.316 µM
  pIC50: < 6.00
Second compound 1 µM
  pIC50: < 6.00
Second compound 3.16 µM
  pIC50: < 6.00
Second compound 10 µM
  pIC50: < 6.00
Second compound 0.0316 µM, first compound 0.00316 µM
  viability, T/C: 94.6%
Second compound 0.0316 µM, first compound 0.01 µM
  viability, T/C: 85.9%
[1]
  viability, T/C: 104%
[2]
  viability, T/C: 108%
[3]
  viability, T/C: 166%
[4]
  viability, T/C: 160%
Second compound 0.1 µM, first compound 0.00316 µM
  viability, T/C: 98.9%
Second compound 0.1 µM, first compound 0.01 µM
  viability, T/C: 84%
[7]
  viability, T/C: 103%
[8]
  viability, T/C: 120%
[9]
  viability, T/C: 148%
[10]
  viability, T/C: 148%
Second compound 0.316 µM, first compound 0.00316 µM
  viability, T/C: 93.5%
Second compound 0.316 µM, first compound 0.01 µM
  viability, T/C: 97.6%
[13]
  viability, T/C: 100%
[14]
  viability, T/C: 124%
[15]
  viability, T/C: 136%
[16]
  viability, T/C: 143%
Second compound 1 µM, first compound 0.00316 µM
  viability, T/C: 104%
Second compound 1 µM, first compound 0.01 µM
  viability, T/C: 99.4%
[19]
  viability, T/C: 104%
[20]
  viability, T/C: 120%
[21]
  viability, T/C: 155%
[22]
  viability, T/C: 129%
Second compound 3.16 µM, first compound 0.00316 µM
  viability, T/C: 102%
Second compound 3.16 µM, first compound 0.01 µM
  viability, T/C: 107%
[25]
  viability, T/C: 100%
[26]
  viability, T/C: 119%
[27]
  viability, T/C: 124%
[28]
  viability, T/C: 108%
Second compound 10 µM, first compound 0.00316 µM
  viability, T/C: 78.3%
Second compound 10 µM, first compound 0.01 µM
  viability, T/C: 88%
[29]
  viability, T/C: 95.9%
[30]
  viability, T/C: 97.7%
[31]
  viability, T/C: 102%
[32]
  viability, T/C: 78.3%

## CNC(=O)c1ccc(N2C(=S)N(c3ccc(C#N)c(C(F)(F)F)c3)C(=O)C2(C)C)cc1F + CC(Nc1ccc2c(c1)OCCn1cc(N3C(=O)OCC3C(F)F)nc1-2)C(N)=O
Second compound 0.00316 µM
  pIC50: < 5.00
Second compound 0.01 µM
  pIC50: < 5.00
Second compound 0.0316 µM
  pIC50: < 5.00
Second compound 0.1 µM
  pIC50: < 5.00
Second compound 0.316 µM
  pIC50: < 5.00
Second compound 1 µM
  pIC50: 6.45
Second compound 0.00316 µM, first compound 0.0316 µM
  viability, T/C: 109%
Second compound 0.00316 µM, first compound 0.1 µM
  viability, T/C: 95.8%
Second compound 0.00316 µM, first compound 0.316 µM
  viability, T/C: 90.8%
Second compound 0.00316 µM, first compound 1 µM
  viability, T/C: 98%
Second compound 0.00316 µM, first compound 3.16 µM
  viability, T/C: 109%
Second compound 0.00316 µM, first compound 10 µM
  viability, T/C: 92.2%
Second compound 0.01 µM, first compound 0.0316 µM
  viability, T/C: 98%
Second compound 0.01 µM, first compound 0.1 µM
  viability, T/C: 83.8%
Second compound 0.01 µM, first compound 0.316 µM
  viability, T/C: 99.3%
Second compound 0.01 µM, first compound 1 µM
  viability, T/C: 89.4%
Second compound 0.01 µM, first compound 3.16 µM
  viability, T/C: 93.7%
Second compound 0.01 µM, first compound 10 µM
  viability, T/C: 106%
[1]
  viability, T/C: 110%
[2]
  viability, T/C: 111%
[3]
  viability, T/C: 94.1%
[4]
  viability, T/C: 113%
[5]
  viability, T/C: 113%
[6]
  viability, T/C: 99.2%
[7]
  viability, T/C: 105%
[8]
  viability, T/C: 95.5%
[9]
  viability, T/C: 100%
[10]
  viability, T/C: 112%
[11]
  viability, T/C: 90.2%
[12]
  viability, T/C: 86.1%
[13]
  viability, T/C: 86.6%
[14]
  viability, T/C: 80%
[15]
  viability, T/C: 68.5%
[16]
  viability, T/C: 79.4%
[17]
  viability, T/C: 73.7%
[18]
  viability, T/C: 63.4%
[19]
  viability, T/C: 58%
[20]
  viability, T/C: 50.4%
[21]
  viability, T/C: 45.1%
[22]
  viability, T/C: 51.6%
[23]
  viability, T/C: 49.6%
[24]
  viability, T/C: 38.5%

## CC1(C)CCC(CN2CCN(c3ccc(C(=O)NS(=O)(=O)c4ccc(NCC5CCOCC5)c([N+](=O)[O-])c4)c(Oc4cnc5[nH]ccc5c4)c3)CC2)=C(c2ccc(Cl)cc2)C1
Compound 0.0316 µM
  viability, T/C: 98% [middle of 4 runs]
Compound 0.1 µM
  viability, T/C: 105% [middle of 4 runs]
Compound 0.316 µM
  viability, T/C: 100% [middle of 4 runs]
Compound 1 µM
  viability, T/C: 97.9% [middle of 4 runs]
